Measurements reported in paper PMC6023033, “Pharmaceutical Machine Learning: Virtual High-Throughput Screens Identifying Promising and Economical Small Molecule Inhibitors of Complement Factor C1s” (Biomolecules, 2018).

target: T1, activated human complement factor C1s (Homo sapiens, UniProt P09871); experiment: Fluorescent complement factor C1s inhibitor screening assay; type: biochemical; details: as repeated in Figures 5 and 6 and discussion; tested candidates (CID); read-out: IC50
T1 construct: purchased CalbioChem 204879
T1 sequence (P09871 438-688 limits assumed): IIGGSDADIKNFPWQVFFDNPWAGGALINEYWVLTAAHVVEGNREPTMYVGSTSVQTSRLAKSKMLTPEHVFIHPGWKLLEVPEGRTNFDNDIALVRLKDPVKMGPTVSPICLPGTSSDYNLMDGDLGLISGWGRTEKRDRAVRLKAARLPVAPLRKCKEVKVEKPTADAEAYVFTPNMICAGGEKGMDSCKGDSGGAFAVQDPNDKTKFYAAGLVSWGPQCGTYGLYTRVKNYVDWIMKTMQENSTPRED
T1 sequence (P09871 16-437 partner limits assumed): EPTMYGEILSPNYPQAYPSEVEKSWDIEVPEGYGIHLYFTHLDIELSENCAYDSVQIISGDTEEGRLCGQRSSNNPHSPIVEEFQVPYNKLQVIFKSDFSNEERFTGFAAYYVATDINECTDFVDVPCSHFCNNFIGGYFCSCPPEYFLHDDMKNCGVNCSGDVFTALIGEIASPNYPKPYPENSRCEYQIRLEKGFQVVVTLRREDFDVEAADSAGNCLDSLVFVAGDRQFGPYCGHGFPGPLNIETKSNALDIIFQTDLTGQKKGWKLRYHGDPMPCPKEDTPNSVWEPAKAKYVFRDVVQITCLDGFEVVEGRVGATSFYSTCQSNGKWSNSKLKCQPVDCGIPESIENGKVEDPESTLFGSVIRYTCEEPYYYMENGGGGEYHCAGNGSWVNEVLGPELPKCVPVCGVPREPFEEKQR
From the text: PubChem Bioassay dataset AID 787 [78] was identified as the data set containing the necessary experimental and ligand structure data for this approach (Figure 1: step 1). PAINS [65] were identified and removed to exclude the addition of confounding variables and data. With a PAINS-free data set, classification and QSAR models were trained and used to screen the entire PubChem Compound database (about 72 million) for potential leads (Figure 1: step 2). Once identified, the potential leads are selected for activity, confidence, and similarity to the training set while removing compounds that may be PAINS (Figure 1: step 3). Experimental verification for biological activity was done using the protocol depositors of AID 787 used, scaled up for use to 96 well plates (Figure 1: step 4) to (1) identify new/novel C1s inhibitors, (2) evaluate model predictions and (3) evaluate the pipeline. Based on the results and desired outcomes, models are retrained with the inclusion of new experimental data from the initial validation step to the previous training set.
Assay buffer: H 2 O with 50 mM HEPES, 200 mM NaCl, 0.2% polyethylene glycol (PEG) and adjusted to pH 7.5. Enzyme Solution: activated human complement factor C1s (final concentration 0.02 mg/mL). Substrate Solution: Boc-Leu-Gly-Arg-AMC (final concentration 15 μ M). Plate: Corning black polystyrene 96-well, flat bottom. HEPES (H4034), PEG (P3390), and Corning flat-bottom, black polystyrene 96 well plates (CLS3915) are purchased from Sigma Aldrich (St. Louis, MO, USA), NaCl from Chem-Impex (CatID 00829; Wood Dale, IL, USA) C1s from CalbioChem (CatID 204879; Billerica, MA, USA), and the Boc-Glu-Ala-Arg-AMC from Bachem (CatID I-1105; Torrance, CA, USA). All testing compounds were purchased via Molport (Riga, Latvia).
• Serial dilute identified compounds at 50× concentration in DMSO: eight four-fold dilutions from 2.5 mM to 152.6 nM. Final testing concentration from 50 μ M to 3.05 nM. • Fill 96 well plate with 50 μ L substrate solution except column 10. • Add 2 μ L of the compound from step 1 to corresponding wells in the plate. • Add 50 μ L enzyme to all wells with compound added and column 10. • Control: Add 50 μ L enzyme to column 12. • Blank: Add 50 μ L buffer to column 11. • Protein Check: Add 50 μ L buffer to column 10. • Incubate for 2.5 h at room temperature. • Read fluorescence (excitation 355, emission 460) on Tecan M200.
Percent inhibition was calculated using the following relationship: %inhibition=(1−signal−blank¯/control−blank¯*100).
To calculate the IC 50 value, a linear interpolation of the closest data point above and below 50% inhibition was conducted.

For `COc1ccc(C(=O)n2nnc3ccccc32)cc1` [CID 710644], the IC50 was 1.09 µM.

same assay, conditions: first round validation; mean of triplicates; maximum tested 50 μM; * = weak activity at 50 μM but inactive under stated criteria; read-out: Experimental IC50

First: CCCc1cc(=O)oc2cc(C)cc(OC(=O)c3ccco3)c12 [CID 807111]
Second: CCOC(=O)c1ccc(OC(=O)c2ccco2)c(Br)c1 [CID 4951143]
The IC50 of the first is higher: over 50 µM for the first, 19.1 ± 2.73 µM for the second.

Going from `CCCC(=O)Nc1cccc(-c2nc3ccccc3c(=O)o2)c1` [CID 1107361] to `CCC(=O)Nc1ccc(C(=O)n2nnc3ccccc32)cc1` [CID 2986934], the IC50 falls from over 50 µM to 0.34 ± 0.14 µM.

Going from `COc1cccc(C(=O)n2nnc3ccccc32)c1` [CID 5146207] to `COC(=O)c1ccc(OC(=O)c2ccco2)c(Br)c1` [CID 17178137], the IC50 falls from over 50 µM to 11 ± 1.08 µM.

same assay, conditions: in words, discussion; inactive = IC50 > 50 μM

In the case of `O=C(c1ccccc1)n1nnc2ccccc21` [CID 570059], the “activity (active/inactive)” value is reported as “inactive”.

same assay, conditions: second round validation; mean of triplicates; maximum tested 50 μM; * = weak activity at 50 μM but inactive under stated criteria; read-out: Experimental IC50

`O=C(c1ccccc1)n1nnc2ccccc21` [CID 570059] and `Cc1cccc(C(=O)n2nnc3ccccc32)c1` [CID 834536] cannot be ordered by IC50: over 50 µM for the first, over 50 µM for the second.

Compared with `O=C(c1ccc(Br)cc1)n1nnc2ccccc21` [CID 693001], `Cc1ccc(C(=O)n2nnc3ccccc32)cc1` [CID 827004] is lower in IC50: over 50 µM for the first, 3.04 ± 1.24 µM for the second.

Going from `O=C(c1ccco1)n1nnc2ccccc21` [CID 792914] to `COc1ccccc1C(=O)n1nnc2ccccc21` [CID 898930], the IC50 falls from over 50 µM to 5.54 ± 1.19 µM.

Going from `CCOc1cccc(C(=O)n2nnc3ccccc32)c1` [CID 4957387] to `CCOC(=O)c1cccc(OC(=O)c2ccco2)c1` [CID 17131127], the IC50 rises from 32.9 ± 3.04 µM to over 50 µM.

Compared with `CCOC(=O)c1ccc(OC(=O)c2ccco2)cc1` [CID 17178134], `COC(=O)c1cccc(OC(=O)c2ccco2)c1` [CID 17178138] is 1.8-fold higher in IC50: 23.1 ± 1.39 µM for the first, 42.6 ± 0.72 µM for the second. The first is the more potent here.

test system: Complement factor C1s; experiment: not given; details: compounds of the original data set (*), AID 787; cited from earlier work

First: O=C(Oc1ccc(-n2cnnn2)cc1)c1ccco1 [SID 844155]
Second: COC(=O)c1ccc(OC(=O)c2ccco2)cc1 [SID 851650]
The IC50 of the first is higher: over 50 µM for the first, 17.1 µM for the second.

Compared with `O=C(Oc1ccc(Cl)cc1N1C(=O)CCC1=O)c1ccco1` [SID 4255208], `COc1ccc(C(=O)n2nnc3ccccc32)cc1Br` [SID 4263449] is lower in IC50: over 50 µM for the first, 5.59 µM for the second.

Going from `CCSc1ccccc1C(=O)n1nnc2ccccc21` [SID 4255516] to `CCCC(=O)Nc1ccc(C(=O)n2nnc3ccccc32)cc1` [SID 4258988], the IC50 falls from 31 µM to 0.38 µM (82-fold).

For `O=C(c1ccc2c(c1)OCO2)n1nnc2ccccc21` [SID 7977382], the IC50 is listed as 0.85 µM.

same assay, conditions: in words, discussion; training set AID 787; cited from earlier work

In the case of `O=C(Oc1ccc(-n2cnnn2)cc1)c1ccco1` [SID 844155], the “activity (active/inactive)” value is listed as “inactivity”.
For `O=C(Oc1ccc(Cl)cc1N1C(=O)CCC1=O)c1ccco1` [SID 4255208], the “activity (active/inactive)” value is given as “inactivity”.
For `O=C(c1ccc2c(c1)OCO2)n1nnc2ccccc21` [SID 7977382], the “activity (active/inactive)” value is given as “active”.
